Experimental data published in paper PMC11480954, “Molecular determinants of resurgent sodium currents mediated by Navβ4 peptide and A-type FHFs” (Frontiers in Molecular Neuroscience, 2024).
Where “and” joins values, the source holds several entries; their conditions need not be identical. Equal values may be shown once. Read-outs that look alike come from different tables or passages of the source. No end group written: not given here.

Tests used:
Purkinje neurons = conditions: ref White et al., 2019, cited from earlier work
Description: Next, we investigated if FHF4A, another INaR mediator reported recently ([White et al., 2019]; [Xiao et al., 2022]), shares the receptor site in VGSCs with Navβ4 peptide.

[1] = biological target: T1, human Nav1.7 R1599P (rpNav1.7) (Homo sapiens, UniProt Q15858, R1610P); assay: Gating properties (steady-state activation, inactivation, INaP), rpNav1.7; type: cell-based
T1 construct: expressed in transfected cells; host or cells: HEK293 cells, transient transfection with pcDNA3.1 construct
Description: (§1) HEK293 cells and ND7/23 cells were grown under standard tissue culture conditions (5% CO2 and 37°C) in DMEM supplemented with 10% FBS, 1% penicillin and 1% streptomycin. Using Invitrogen Lipofectamine 2000, human Nav1.7 R1599P (rpNav1.7) and the mutant constructs were transiently co-transfected with Navβ1 and Navβ2 into HEK293 cells. The constructs human Nav1.8 and mutants were transiently co-transfected with FHF2B or FHF4A into ND7/23 cells. The lipofectamine-DNA mixture was added to the cell culture medium and left for 3 h after which the cells were washed with fresh medium. Cells with green fluorescent protein fluorescence were selected for whole-cell patch-clamp recordings 36–72 h after transfection.
(§2) Whole-cell voltage-clamp recordings were performed at room temperature (~21°C) using an EPC-10 amplifier and the Pulse program (HEKA Electronics). Fire-polished electrodes (0.7–1.0 MΩ) were fabricated from 1.7 mm capillary glass using a P-97 puller (Sutter Instruments), and the tips were coated with sticky wax (KerrLab) to reduce electrode capacitance and enable increased series resistance compensation. The pipette solution contained (in mM) 140 CsF, 1.1 EGTA, 10 NaCl, and 10 HEPES, pH 7.3. The bathing solution was (in mM) 130 mM NaCl, 30 mM TEA chloride, 1 mM MgCl2, 3 mM KCl, 1 mM CaCl2, 10 mM HEPES, and 10 mM d-glucose, pH 7.3 (adjusted with NaOH). […] The offset potential was zeroed before contacting the cell. After establishing the whole-cell recording configuration, the resting potential was held at −120 or −100 mV for 5 min to allow adequate equilibration between the micropipette solution and the cell interior. […]
(§3) Families of sodium currents were induced by 50-ms depolarizing steps to various potentials ranging from −120 (or −100) to +40 mV in 5-mV increments. The conductance was calculated using the equation G(Nav) = I/(V - Vrev) in which I, V, and Vrev represent inward current value, membrane potential, and reversal potential, respectively. […]

[2] = biological target: T1, human Nav1.7 R1599P (rpNav1.7); assay: Resurgent current (INaR), whole-cell patch clamp, rpNav1.7; type: cell-based
Description: as §1, §2
(§4) INaR: INaR was elicited by repolarizing voltage steps from +20 to −80 mV for 100 ms (or 200 ms) in −5 mV increments, following a 20-ms depolarizing potential of +30 mV. […] The relative INaR in Nav1.7 and Nav1.8 was calculated by normalizing to the peak transient current elicited at −10 or 0 mV.

human Nav1.8 [3] = assay: INaR, Nav1.8 co-expressed with FHF2B; type: cell-based; conditions: Nav1.8 + FHF2B, ND7/23, 1 mM
Description: as §1
(§5) Whole-cell voltage-clamp recordings were performed at room temperature (~21°C) using an EPC-10 amplifier and the Pulse program (HEKA Electronics). Fire-polished electrodes (0.7–1.0 MΩ) were fabricated from 1.7 mm capillary glass using a P-97 puller (Sutter Instruments), and the tips were coated with sticky wax (KerrLab) to reduce electrode capacitance and enable increased series resistance compensation. The pipette solution contained (in mM) 140 CsF, 1.1 EGTA, 10 NaCl, and 10 HEPES, pH 7.3. The bathing solution was (in mM) 130 mM NaCl, 30 mM TEA chloride, 1 mM MgCl2, 3 mM KCl, 1 mM CaCl2, 10 mM HEPES, and 10 mM d-glucose, pH 7.3 (adjusted with NaOH). […] The offset potential was zeroed before contacting the cell. After establishing the whole-cell recording configuration, the resting potential was held at −120 or −100 mV for 5 min to allow adequate equilibration between the micropipette solution and the cell interior. Linear leak subtraction, based on resistance estimates from four to five hyperpolarizing pulses applied before the depolarizing test potential, was used for all voltage clamp recordings. Membrane currents were usually filtered at 5 kHz and sampled at 20 kHz. […] Voltage errors were minimized using 80–95% series resistance compensation, and the capacitance artifact was canceled using the computer-controlled circuitry of the patch clamp amplifier. […] The concentration-dependent curves were fitted to a hill equation: Y = Bottom + (Top-Bottom)/(1 + 10^((LogEC50-X)*HillSlope)).
as §4

human Nav1.7 = assay: Steady-state activation and inactivation, WT Nav1.7; type: cell-based; conditions: HEK293, 100 μM intracellular, mean ± S.E., scramble n = 6, Navβ4 peptide n = 8
Description: as §1
Whole-cell voltage-clamp recordings were performed at room temperature (~21°C) using an EPC-10 amplifier and the Pulse program (HEKA Electronics). […]
as §3

human Nav1.8 [4] = assay: Gating properties (steady-state activation, inactivation, INaP), Nav1.8; type: cell-based; conditions: Nav1.8 + FHF2B, ND7/23; 1 mM; held at −100 mV; scramble n = 8, FHF4A peptide n = 10; p > 0.05
Description: as §1, §5
Families of sodium currents were induced by 50-ms depolarizing steps to various potentials ranging from −120 (or −100) to +40 mV in 5-mV increments. The conductance was calculated using the equation G(Nav) = I/(V - Vrev) in which I, V, and Vrev represent inward current value, membrane potential, and reversal potential, respectively.
Voltage dependence of steady-state inactivation was estimated using a standard double pulse protocol in which sodium currents were induced by a 50-ms depolarizing potential of 0 mV following a 500-ms prepulse at potentials that ranged from −150 to +10 mV with a 10-mV increment. Currents were plotted as a fraction of the maximum peak current. To obtain the midpoint voltages (V1/2) and slope factor (k), the curves of both steady-state activation and inactivation were fitted to a Boltzmann function.

[5] = biological target: T1, human Nav1.7 R1599P (rpNav1.7); assay: Long-term inactivation of rpNav1.7; type: cell-based; conditions: rpNav1.7, HEK293; 1 mM; six 16-ms pulses of −10 mV from −100 mV, 40-ms interpulse; scramble n = 6, FHF4A peptide n = 5; p < 0.0001
Nav1.7 N395K = conditions: ref Sheets et al., 2007; cited from earlier work
Description: The receptor site of local anesthetics is formed by multiple residues within DIS6, DIIIS6 and DIVS6. […] Several studies have implicated F1764 and Y1771 in Nav1.2 (corresponding to F1737 and Y1744 in Nav1.7) as playing a major effect on local anesthetics-induced inhibition of VGSCs ([Ragsdale et al., 1996]). We recently reported that mutation of an asp ...

VGSC α-subunits = conditions: heterologous co-expression with VGSC α-subunits; no reference given; cited from earlier work
Description: FHF4A could still induce INaR from the F1710K channel (Figure 10A), but the average INaR amplitude at −20 mV is only 2.0% ± 0.2% of the peak transient current, which is less than one-half of the value from WT Nav1.8 (p < 0.0001). ... || The role of Navβ4 in INaR generation remains controversial. […] [Bant and Raman (2010)] reported that siRNA induced knock-down of Navβ4 reduced INaR generation in cultured cerebellar granular neurons by roughly 60%. […] Furthermore, Scn4b knock-out in mice has produced variable effects on INaR. In striatal neurons, Scn4b kno ...

T1 sequence (Q15858 1-1977 isoform Q15858-3 R1599P): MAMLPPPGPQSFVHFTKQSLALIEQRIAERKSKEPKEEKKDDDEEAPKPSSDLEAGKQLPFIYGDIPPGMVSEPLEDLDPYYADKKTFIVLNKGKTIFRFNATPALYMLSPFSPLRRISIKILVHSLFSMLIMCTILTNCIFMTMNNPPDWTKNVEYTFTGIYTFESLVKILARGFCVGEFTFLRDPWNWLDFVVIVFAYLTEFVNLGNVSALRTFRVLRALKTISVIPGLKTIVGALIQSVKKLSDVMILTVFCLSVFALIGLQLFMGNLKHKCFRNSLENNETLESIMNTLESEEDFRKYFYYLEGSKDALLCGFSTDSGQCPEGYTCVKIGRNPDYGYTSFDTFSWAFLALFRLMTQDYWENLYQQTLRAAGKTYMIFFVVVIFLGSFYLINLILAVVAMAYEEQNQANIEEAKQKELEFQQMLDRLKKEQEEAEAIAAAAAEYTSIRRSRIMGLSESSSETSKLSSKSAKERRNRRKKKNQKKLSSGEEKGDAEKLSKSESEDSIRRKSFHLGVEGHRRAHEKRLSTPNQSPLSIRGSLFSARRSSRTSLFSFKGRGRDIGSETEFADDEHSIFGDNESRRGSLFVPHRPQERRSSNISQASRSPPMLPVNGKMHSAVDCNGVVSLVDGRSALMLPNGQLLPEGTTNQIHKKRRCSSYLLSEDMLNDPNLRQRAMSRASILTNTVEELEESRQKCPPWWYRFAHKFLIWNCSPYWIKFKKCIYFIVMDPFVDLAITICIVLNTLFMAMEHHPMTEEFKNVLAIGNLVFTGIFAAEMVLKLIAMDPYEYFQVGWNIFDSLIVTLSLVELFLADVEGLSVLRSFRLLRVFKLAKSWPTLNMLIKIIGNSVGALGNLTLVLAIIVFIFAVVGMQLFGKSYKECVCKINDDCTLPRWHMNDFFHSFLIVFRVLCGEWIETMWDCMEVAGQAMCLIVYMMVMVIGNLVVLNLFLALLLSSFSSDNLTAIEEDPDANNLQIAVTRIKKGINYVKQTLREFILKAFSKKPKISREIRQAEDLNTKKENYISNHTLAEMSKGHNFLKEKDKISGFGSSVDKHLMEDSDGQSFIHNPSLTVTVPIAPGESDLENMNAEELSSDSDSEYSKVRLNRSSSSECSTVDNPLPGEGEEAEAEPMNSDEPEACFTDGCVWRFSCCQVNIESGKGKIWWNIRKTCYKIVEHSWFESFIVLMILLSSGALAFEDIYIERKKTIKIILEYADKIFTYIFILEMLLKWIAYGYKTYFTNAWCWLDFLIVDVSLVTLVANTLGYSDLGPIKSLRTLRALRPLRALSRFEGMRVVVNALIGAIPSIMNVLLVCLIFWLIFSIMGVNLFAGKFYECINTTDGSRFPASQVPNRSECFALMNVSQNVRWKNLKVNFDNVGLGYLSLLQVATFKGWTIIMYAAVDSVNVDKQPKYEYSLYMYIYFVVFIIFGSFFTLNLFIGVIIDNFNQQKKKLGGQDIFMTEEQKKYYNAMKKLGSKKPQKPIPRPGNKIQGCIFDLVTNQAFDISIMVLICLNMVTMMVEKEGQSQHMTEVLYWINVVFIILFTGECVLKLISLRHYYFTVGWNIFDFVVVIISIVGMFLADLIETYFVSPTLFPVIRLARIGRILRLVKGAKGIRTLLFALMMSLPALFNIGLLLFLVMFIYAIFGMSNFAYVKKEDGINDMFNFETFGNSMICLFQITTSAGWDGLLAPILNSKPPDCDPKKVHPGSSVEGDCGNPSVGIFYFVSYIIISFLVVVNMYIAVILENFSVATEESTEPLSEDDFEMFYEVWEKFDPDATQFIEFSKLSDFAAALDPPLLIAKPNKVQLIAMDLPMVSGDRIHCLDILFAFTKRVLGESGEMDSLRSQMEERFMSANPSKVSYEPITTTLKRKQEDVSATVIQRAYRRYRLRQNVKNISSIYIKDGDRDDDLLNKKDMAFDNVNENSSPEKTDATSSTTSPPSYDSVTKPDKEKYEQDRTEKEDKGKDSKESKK
T1 sequence (Q07699 19-218 partner): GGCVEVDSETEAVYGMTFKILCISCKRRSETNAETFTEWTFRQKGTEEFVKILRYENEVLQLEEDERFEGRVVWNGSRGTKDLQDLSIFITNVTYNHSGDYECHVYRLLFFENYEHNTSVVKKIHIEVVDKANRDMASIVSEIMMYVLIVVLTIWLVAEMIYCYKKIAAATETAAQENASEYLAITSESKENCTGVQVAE
T1 sequence (O60939 30-215 partner): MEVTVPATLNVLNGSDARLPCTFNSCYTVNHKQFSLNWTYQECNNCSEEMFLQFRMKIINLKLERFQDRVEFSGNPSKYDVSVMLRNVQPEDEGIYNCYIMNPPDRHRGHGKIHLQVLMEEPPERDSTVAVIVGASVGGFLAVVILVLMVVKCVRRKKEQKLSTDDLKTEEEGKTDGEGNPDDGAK

substitution of the 7^th residue leucine with serine: FHF4A K50 – R63 peptide with substitution of the 7th residue leucine with serine (KVRIFGSKKRRLRR; FHF4A peptide K50-R63; UniProt Q92915 50-63, looked up, variant L56S)
INaR in Purkinje neurons (Purkinje neurons): no longer induce INaR

KKLITFILKKTREK [Navβ4 peptide]
INaP, rpNav1.7 ([1]; end of 50-ms pulse of −10 mV, normalized to peak transient current, 100 μM Navβ4 peptide, n = 9): 7.1% ± 3.0% and 7.1 ± 3.0 (9) %
average INaR amplitude elicited at −30 mV ([2]; rpNav1.7 + Navβ1 + Navβ2, HEK293, 100 μM peptide intracellular, measured after 3.0 ms into repolarization, ~21°C, mean ± S.E., n = 14): 15.7% ± 1.1%
EC50 ([2]; rpNav1.7, HEK293, Hill equation, peptide in intracellular solution (10 μM – 1 mM), each data point from 3 to 14 cells, read-out: EC50 for INaR generation): 61.8 ± 1.3 µM

KAREAQRASRAIEQLRSAKI [scrambled peptide, scrambled control peptide]
INaR with scrambled peptide, Nav1.8 (human Nav1.8 [3]): failed to produce INaR
V1/2(activation), WT Nav1.7 (human Nav1.7; p < 0.01): −29.3 ± 1.6 mV
V1/2(inactivation), WT Nav1.7 (human Nav1.7; p < 0.05): −79.7 ± 1.7 mV
Inactivation (V1/2), rpNav1.7 ([1]; HEK293, 100 μM intracellular, mean ± S.E., scramble n = 5, Navβ4 peptide n = 9, p < 0.05): −75.0 ± 1.5 mV
Activation (V1/2), rpNav1.7 ([1]; HEK293, 100 μM intracellular, mean ± S.E., scramble n = 6, Navβ4 peptide n = 9, p < 0.01): −27.0 ± 1.9 mV
INaR elicited with scrambled peptide ([2]; Nav1.7 and rpNav1.7 (Figures 1A,B), HEK293, 100 μM intracellular): no INaR was elicited
V1/2 (activation), Nav1.8, Figure 6 (human Nav1.8 [4]): −10.0 ± 2.4 mV
V1/2 (inactivation), Nav1.8, Figure 6 (human Nav1.8 [4]): −44.5 ± 2.1 mV
fraction of the current elicited at the 6th pulse [5]: 0.87 ± 0.08

CCN(CC)CC(=O)Nc1c(C)cccc1C [lidocaine]
effect of N395K on lidocaine inhibition of Nav1.7 (Nav1.7 N395K): attenuates the inhibitory effects of lidocaine on Nav1.7

peptide derived from the sequence FHF4A K50 – R63: a peptide derived from the sequence FHF4A K50 – R63 (KVRIFGLKKRRLRR; FHF4A; UniProt Q92915 50-63, looked up, fragment)
INaR in Purkinje neurons (Purkinje neurons): INaR was also reconstituted in Purkinje neurons
INaR in Purkinje neurons (Purkinje neurons; listed as short peptide derived from this segment): induce robust Nav1.6 INaR in Purkinje neurons

B1: full-length Navβ4: full-length Navβ4 sodium channel auxiliary subunit (protein, UniProt Q8IWT1 1-228, looked up)
chain: MPGAGDGGKAPARWLGTGLLGLFLLPVTLSLEVSVGKATDIYAVNGTEILLPCTFSSCFGFEDLHFRWTYNSSDAFKILIEGTVKNEKSDPKVTLKDDDRITLVGSTKEKMNNISIVLRDLEFSDTGKYTCHVKNPKENNLQHHATIFLQVVDRLEEVDNTVTLIILAVVGGVIGLLILILLIKKLIIFILKKTREKKKECLVSSSGNDNTENGLPGSKAEEKPPSKV
modifications: full-length
notes: full-length Navβ4 sodium channel auxiliary subunit
INaR with full-length Navβ4 (VGSC α-subunits): fails to reconstitute INaR in heterologous systems
